Measured values: US8293917B2, “Pyrazole compounds as CCR1 antagonists” (Boehringer Ingelheim International GmbH, priority 2008, dated 2012)
“And” between values parts separate entries of the source, which are not always exact repeats. Equal values may be shown once.

Biological target: T1, CCR1 (Homo sapiens, UniProt P32246)
T1 construct: host or cells: non-adherent cells
T1 sequence (P32246 1-355): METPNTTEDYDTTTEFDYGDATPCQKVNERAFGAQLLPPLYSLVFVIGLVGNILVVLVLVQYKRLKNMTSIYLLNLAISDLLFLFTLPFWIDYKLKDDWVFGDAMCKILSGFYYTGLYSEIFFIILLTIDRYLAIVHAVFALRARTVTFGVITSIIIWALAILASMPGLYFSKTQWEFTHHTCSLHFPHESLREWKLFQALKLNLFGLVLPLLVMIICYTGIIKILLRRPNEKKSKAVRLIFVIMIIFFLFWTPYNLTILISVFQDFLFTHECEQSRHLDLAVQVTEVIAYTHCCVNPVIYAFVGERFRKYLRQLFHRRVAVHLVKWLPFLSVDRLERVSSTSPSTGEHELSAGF
Experiment: functional cellular assay measuring calcium flux in response to MIP1α in CCR1-transfected cells (Method A or Method B)
Format: cell-based
Conditions: cells stably expressing recombinant CCR1 and G-alpha-16; MIP-1alpha added at EC80; method (A: FLIPR TETRA, B: FDSS6000) not stated per compound
Procedure: Compounds are assessed for the ability to block the interaction of CCR1 and its ligands in a functional cellular assay measuring calcium flux in response to MIP1α in CCR1-transfected cells.
Method A: Non-adherent cells purchased from Chemicon Corporation (HTS005C), stably expressing recombinant CCR1 and G-alpha-16 are grown in RPMI 1640 medium (Mediatech 10-080-CM) supplemented with 10% heat-inactivated FBS, 0.4 mg/mL Geneticin and penicillin/streptomycin. On the day of the assay, the cells are transferred to a beaker and dye-loaded in bulk using a Fluo-4 NW Calcium Assay Kit with probenecid (Invitrogen F36205) at 0.8E6 cells/mL for 1 hour at room temperature. After 1 hour, they are seeded in a 384-well tissue culture-treated plate at a density of 20,000 cells/well. Appropriately diluted test compound is added to the well to achieve a top concentration of 3,000 nM (diluted 3-fold with 10 doses total). The final concentration of DMSO is 1%. The buffer is HBSS (Invitrogen 14025) with 20 mM HEPES at pH 7.4. The cells are allowed to incubate 1 hour in the dark at room temperature. The plates are transferred to the FLIPR TETRA where MIP-1alpha in 1% BSA is added at the EC80 final concentration. Wells +/−MIP-1alpha containing diluted DMSO instead of compound serve as the controls. Intracellular calcium flux is recorded on the FLIPR TETRA, using excitation at 470/495 nm and emission at 515/575 nm. Data are analyzed using Activity Base software.
Method B: Non-adherent cells purchased from Chemicon Corporation (HTS005C), stably expressing recombinant CCR1 and G-alpha-16 are grown in RPMI 1640 medium (Mediatech 10-080-CM) supplemented with 10% FBS, 0.4 mg/mL Geneticin and penicillin/streptomycin. On the day of the assay, the cells are loaded with Calcium 4 dye (Molecular Devices R7448) with Probenecid (Invitrogen P346400) at 8E5 cells/mL for 1 hour at room temperature. After 1 hour, they are seeded in a 384-well tissue culture-treated plate at a density of 20,000 cells/well. Appropriately diluted test compound is added to the well to achieve a top concentration of 3,000 nM (diluted 4-fold with 10 doses total). The final concentration of DMSO is 1%. The buffer is HBSS (Invitrogen 14025) with 20 mM HEPES at pH 7.4. The cells incubate 30 minutes at 37 C and then 30 minutes at room temperature. The plates are transferred to the HAMAMATSU FDSS6000 where MIP-1alpha in 1% BSA is added at the EC80 final concentration. All plates must be read within 4 hours of the start of dye-loading. Wells +/−MIP-1alpha containing diluted DMSO instead of compound serve as the controls. Data are analyzed using Activity Base software.

## CCC[C@H](NC(=O)c1cnn(-c2ccc(Cl)cc2)c1C)c1ccc(F)c(C(F)(F)F)c1 [1-(4-Chloro-phenyl)-5-methyl-1H-pyrazole-4-carboxylic acid [(S)-1-(4-fluoro-3-trifluoromethyl-phenyl)-butyl]-amide]
  IC50: 10 nM

## CCCC(NC(=O)c1cnn(-c2ccc(Cl)cc2)c1C)c1cncc(S(N)(=O)=O)c1 (stereo not drawn) [1-(4-Chloro-phenyl)-5-methyl-1H-pyrazole-4-carboxylic acid [1-(5-sulfamoyl-pyridin-3-yl)-butyl]-amide]
  IC50: 31 nM and 35 nM

## CC[C@H](NC(=O)c1cnn(-c2ccc(Cl)c(Cl)c2)c1C)c1cccc(Br)c1 [1-(3,4-Dichloro-phenyl)-5-methyl-1H-pyrazole-4-carboxylic acid [(S)-1-(3-bromo-phenyl)-propyl]-amide]
  IC50: 16 nM

## CCCC(NC(=O)c1cnn(-c2ccc(Cl)cc2)c1C)c1ccc(S(=O)(=O)NC)nc1 (stereo not drawn) [1-(4-Chloro-phenyl)-5-methyl-1H-pyrazole-4-carboxylic acid [1-(6-methylsulfamoyl-pyridin-3-yl)-butyl]-amide]
  IC50: 6.3 nM

## CCCC(NC(=O)c1cnn(-c2ccc(Cl)cc2)c1C)c1cncc(S(=O)(=O)N(C)C)c1 (stereo not drawn) [1-(4-Chloro-phenyl)-5-methyl-1H-pyrazole-4-carboxylic acid [1-(5-dimethylsulfamoyl-pyridin-3-yl)-butyl]-amide]
  IC50: 4.9 nM

## CCCC(NC(=O)c1cnn(-c2ccc(Cl)c(Cl)c2)c1C)c1cncc(S(C)(=O)=O)c1 (stereo not drawn) [1-(3,4-Dichloro-phenyl)-5-methyl-1H-pyrazole-4-carboxylic acid [1-(5-methanesulfonyl-pyridin-3-yl)-butyl]-amide]
  IC50: 1 nM

## CCCC(NC(=O)c1cnn(-c2ccc(Cl)cc2)c1C)c1ccc(S(=O)(=O)C2CC2)nc1 (stereo not drawn) [1-(4-Chloro-phenyl)-5-methyl-1H-pyrazole-4-carboxylic acid [1-(6-cyclopropanesulfonyl-pyridin-3-yl)-butyl]-amide]
  IC50: 53 nM

## CCCC(NC(=O)c1cnn(-c2ccc(Cl)cc2)c1C)c1cncc(S(=O)(=O)NC)c1 (stereo not drawn) [1-(4-Chloro-phenyl)-5-methyl-1H-pyrazole-4-carboxylic acid [1-(5-methylsulfamoyl-pyridin-3-yl)-butyl]-amide]
  IC50: 4.1 nM

## CCC[C@H](NC(=O)c1cnn(-c2ccc(Cl)cc2)c1C)c1ccc(S(C)(=O)=O)nc1 (stereo in doubt) [1-(4-Chloro-phenyl)-5-methyl-1H-pyrazole-4-carboxylic acid [1-(6-methanesulfonyl-pyridin-3-yl)-butyl]-amide]
  IC50: 35 nM

## CCCC(NC(=O)c1cnn(-c2ccc(Cl)cc2)c1C)c1ccc(S(=O)(=O)NCCO)nc1 (stereo not drawn) [1-(4-Chloro-phenyl)-5-methyl-1H-pyrazole-4-carboxylic acid {1-[6-(2-hydroxy-ethylsulfamoyl)-pyridin-3-yl]-butyl}-amide]
  IC50: 97 nM

## C=CCCC[C@H](NC(=O)c1cnn(-c2ccc(Cl)cc2)c1C)c1cccc(C(F)(F)F)c1 [1-(4-Chloro-phenyl)-5-methyl-1H-pyrazole-4-carboxylic acid [(S)-1-(3-trifluoromethyl-phenyl)-hex-5-enyl]-amide]
  IC50: 30 nM

## CCCC(NC(=O)c1cnn(-c2ccc(Cl)cc2)c1C)c1ccc(S(=O)(=O)N(C)C)nc1 (stereo not drawn) [1-(4-Chloro-phenyl)-5-methyl-1H-pyrazole-4-carboxylic acid [1-(6-dimethylsulfamoyl-pyridin-3-yl)-butyl]-amide]
  IC50: 12 nM

## CC[C@H](NC(=O)c1cnn(-c2ccc(Cl)cc2)c1C)c1cnc(S(C)(=O)=O)s1 [1-(4-Chloro-phenyl)-5-methyl-1H-pyrazole-4-carboxylic acid [(S)-1-(2-methanesulfonyl-thiazol-5-yl)-propyl]-amide]
  IC50: 57 nM

## CCCC(NC(=O)c1cnn(-c2ccc(Cl)cc2)c1C)c1ccnc(S(=O)(=O)CC)c1 (stereo not drawn) [1-(4-Chloro-phenyl)-5-methyl-1H-pyrazole-4-carboxylic acid [1-(2-ethanesulfonyl-pyridin-4-yl)-butyl]-amide]
  IC50: 5.7 nM

## CCCC(NC(=O)c1cnn(-c2ccc(Br)cc2)c1C)c1cncc(S(C)(=O)=O)c1 (stereo not drawn) [1-(4-Bromo-phenyl)-5-methyl-1H-pyrazole-4-carboxylic acid [1-(5-methanesulfonyl-pyridin-3-yl)-butyl]-amide]
  IC50: 9.3 nM

## CC[C@H](NC(=O)c1cnn(-c2ccc(Cl)cc2)c1C)c1ccc(F)c(C(F)(F)F)c1 [1-(4-Chloro-phenyl)-5-methyl-1H-pyrazole-4-carboxylic acid [(S)-1-(4-fluoro-3-trifluoromethyl-phenyl)-propyl]-amide]
  IC50: 13 nM

## CCCC(NC(=O)c1cnn(-c2ccc(Cl)cc2)c1C)c1ccnc(S(N)(=O)=O)c1 (stereo not drawn) [1-(4-Chloro-phenyl)-5-methyl-1H-pyrazole-4-carboxylic acid [1-(2-sulfamoyl-pyridin-4-yl)-butyl]-amide]
  IC50: 51 nM

## CC[C@H](NC(=O)c1cnn(-c2ccc(Cl)cc2)c1C)c1ccnc(S(C)(=O)=O)c1 [1-(4-Chloro-phenyl)-5-methyl-1H-pyrazole-4-carboxylic acid [(S)-1-(2-methanesulfonyl-pyridin-4-yl)-propyl]-amide]
  IC50: 29 nM

## CCC[C@H](NC(=O)c1cnn(-c2ccc(Cl)cc2)c1CO)c1cccc(C(F)(F)F)c1 [1-(4-Chloro-phenyl)-5-hydroxymethyl-1H-pyrazole-4-carboxylic acid [(S)-1-(3-trifluoromethyl-phenyl)-butyl]-amide]
  IC50: 6.5 nM

## CCCC(NC(=O)c1cnn(-c2ccc(Cl)cc2)c1C)c1ccc(S(=O)(=O)CC)nc1 (stereo not drawn) [1-(4-Chloro-phenyl)-5-methyl-1H-pyrazole-4-carboxylic acid [1-(6-ethanesulfonyl-pyridin-3-yl)-butyl]-amide]
  IC50: 60 nM

## CCCC(NC(=O)c1cnn(-c2ccc(Cl)cc2)c1C)c1ccnc(S(=O)(=O)C2CC2)c1 (stereo not drawn) [1-(4-Chloro-phenyl)-5-methyl-1H-pyrazole-4-carboxylic acid [1-(2-cyclopropanesulfonyl-pyridin-4-yl)-butyl]-amide]
  IC50: 12 nM

## CCCC(NC(=O)c1cnn(-c2ccc(Cl)cc2)c1C)c1ccnc(S(=O)(=O)NC)c1 (stereo not drawn) [1-(4-Chloro-phenyl)-5-methyl-1H-pyrazole-4-carboxylic acid [1-(2-methylsulfamoyl-pyridin-4-yl)-butyl]-amide]
  IC50: 2.9 nM

## CCCC(NC(=O)c1cnn(-c2ccc(Cl)cc2)c1C)c1ccnc(S(=O)(=O)CCC(=O)OC)c1 (stereo not drawn) [3-[4-(1-{[1-(4-Chloro-phenyl)-5-methyl-1H-pyrazole-4-carbonyl]-amino}-butyl)-pyridine-2-sulfonyl]-propionic acid methyl ester]
  IC50: 80 nM

## CC[C@H](NC(=O)c1cnn(-c2ccc(Cl)cc2)c1C)c1cncc(Br)c1 [1-(4-Chloro-phenyl)-5-methyl-1H-pyrazole-4-carboxylic acid [(S)-1-(5-bromo-pyridin-3-yl)-propyl]-amide]
  IC50: 20 nM

## CCC[C@H](NC(=O)c1cnn(-c2ccc(Cl)cc2)c1C)c1cccc(Br)c1 [1-(4-Chloro-phenyl)-5-methyl-1H-pyrazole-4-carboxylic acid [(S)-1-(3-bromo-phenyl)-butyl]-amide]
  IC50: 28 nM

## CCCC(NC(=O)c1cnn(-c2ccc(Cl)cc2)c1C)c1cncc(S(C)(=O)=O)c1 (stereo not drawn) [1-(4-Chloro-phenyl)-5-methyl-1H-pyrazole-4-carboxylic acid [1-(5-methanesulfonyl-pyridin-3-yl)-butyl]-amide]
  IC50: 15 nM

## CCCC(NC(=O)c1cnn(-c2ccc(Cl)cc2)c1C)c1ccnc(S(C)(=O)=O)c1 (stereo not drawn) [1-(4-Chloro-phenyl)-5-methyl-1H-pyrazole-4-carboxylic acid [1-(2-methanesulfonyl-pyridin-4-yl)-butyl]-amide]
  IC50: 2.3 nM
